Test results taken from PubChem BioAssay AID2823 (Broad Institute, 2010).
Active and inactive are the calls of the source. How the calls were made is not given here.

What follows are molecules tested against RanGTP-importin-beta complex (human Ran / KPNB1) (assay: Ran–importin-beta interaction inhibitors, confirmation, biochemical, FRET, CFP/YFP, cell-free homogeneous (AID 2823)). Conditions: CFP-Ran/YFP-importin-beta FRET ratio.
In the case of `COc1ccc(C(=O)O)cc1S(=O)(=O)N(C)C`, the IC50 is reported as > 50 µM (inactive).
With `CCCOc1ccc(Cn2ccnc2)cc1[N+](=O)[O-]` the IC50 was > 50 µM (inactive).
With `CCOc1cc(NS(=O)(=O)c2ccc(NC(C)=O)cc2)c(OCC)cc1NC(=O)C(C)C` the IC50 was > 50 µM (inactive).
With `COc1ccc(CCNc2c3ccccc3nc3ccccc23)cc1OC` the IC50 was 12.5 µM.
Work on `Cc1cccn2c(=O)c(/C=C(\C#N)C(=O)NC3CCS(=O)(=O)C3)c(Oc3ccc(F)cc3)nc12` (stereo not given) yielded an IC50 of 15.6 µM.
`CN1CCN(c2ccc(S(=O)(=O)N3CCCCC3)cc2NC(=O)Cc2ccc(Cl)cc2)CC1` was tested, and the IC50 was > 50 µM (inactive).
For `CCC(c1nnnn1C1CCCC1)N1CCC(C(N)=O)CC1` (stereo not given), the IC50 was > 50 µM (inactive).
`CC(C)OCCCNC(=O)CCSc1ccc(Cl)cc1` was tested, and the IC50 was > 50 µM (inactive).
`Cn1c(N/N=C/c2cc3ccccc3nc2Cl)nc2ccccc21` was tested, and the IC50 was > 120 µM (inactive).
For `O=C1NC(c2cccc([N+](=O)[O-])c2)Oc2ccccc21` (stereo not given), the IC50 was > 50 µM (inactive).
For `N#Cc1ccccc1NC(=O)C1CC(=O)N(c2ccc3c4c(cccc24)CC3)C1` (stereo not given), the IC50 was > 50 µM (inactive).
`O=C(CSc1nnc(-c2ccc(F)cc2)o1)Nc1ccc(S(=O)(=O)N2CCCC2)cc1` was tested, and the IC50 was > 50 µM (inactive).
For `Cc1c(N=Cc2c(O)n(Cc3ccco3)c(=O)c3ccccc23)c(=O)n(-c2ccccc2)n1C`, the IC50 was > 50 µM (inactive).
With `CCOC(=O)c1ccccc1NC(=O)COC(=O)C(CCSC)NC(=O)COc1ccccc1` (stereo not given) the IC50 was > 50 µM (inactive).
`CSc1nsc(/C=C/Nc2ccc(C)cc2)c1C#N` was tested, and the IC50 was > 50 µM (inactive).
In the case of `Cc1cc(Cl)ccc1C(=O)C1CCCN(C(=O)c2n[nH]c3c2CCCC3)C1` (stereo not given), the IC50 is reported as > 50 µM (inactive).
With `Cc1cc2oc3cc(NCCC4CCCN4C)ccc3c(=O)c2cc1C` (stereo not given) the IC50 was 8.12 µM.
`Oc1c(C(Nc2nc3ccccc3s2)c2ccco2)ccc2cccnc12` (stereo not given) was tested, and the IC50 was > 50 µM (inactive).
In the case of `Cc1ccc(-c2nnn(CC(=O)N(c3ccccc3)C(C(=O)NCC3CCCO3)c3ccc(Cl)cc3)n2)cc1` (stereo not given), the IC50 is reported as > 50 µM (inactive).
In the case of `Cn1cnc(S(=O)(=O)N2CCN(c3ccc(Cl)cc3)CC2)c1`, the IC50 is reported as > 50 µM (inactive).
For `CSc1nsc2nc(=O)c(/C=C3\C=Nc4ccccc43)c(N)n12`, the IC50 was 22.6 µM.
For `O=C(O)COc1ccc(F)cc1Br`, the IC50 was > 50 µM (inactive).
`O=c1c2ccccc2sc2ccc(C#CC3(O)CCCCC3)cc12` was tested, and the IC50 was 23.1 µM.
`COc1ccc(C(=O)NCCNc2nc3c(C)cccc3cc2C#N)cc1` gave an IC50 of 24.4 µM.
Molecule `Cc1cccc2cc(C#N)c(NCCCn3ccnc3)nc12` has an IC50 of 19.2 µM.
With `COCCCNC(=O)/C(C#N)=C/c1c(N2CCN(c3ccccc3)CC2)nc2ccccn2c1=O` the IC50 was 25.9 µM.
For `Cc1sc(NC(=O)c2oc3ccccc3c2C)c(C#N)c1C`, the IC50 was > 50 µM (inactive).
`CN(C)Cc1c(O)ccc2c3c(c(=O)oc12)CCCCC3` was tested, and the IC50 was 24.6 µM.
In the case of `COc1ccc(C(=O)C[n+]2ccc(N)c(C)c2C)cc1`, the IC50 is reported as > 50 µM (inactive).
In the case of `CCOc1ccc(C(=O)c2cc3ccc(O)cc3oc2=O)cc1`, the IC50 is reported as 9.4 µM.
In the case of `CCN1CCc2nc(NC(=O)c3cc(F)c(F)cc3Cl)sc2C1`, the IC50 is reported as > 50 µM (inactive).
With `COc1ccc(-n2cnc3cc(NCc4ccco4)ccc32)cc1` the IC50 was > 50 µM (inactive).
`CCOC(=O)c1oc2c(CN3CCN(CCO)CC3)c(O)c(CC)cc2c(=O)c1-c1nc2ccccc2s1` showed an IC50 of 18.4 µM.
With `CCOC(=O)/C=C1\SCC(=O)N1CC(=O)c1ccc[nH]1` the IC50 was > 50 µM (inactive).
For `CC(C)Cc1nnc(NC(=O)Cc2cccs2)s1`, the IC50 was > 50 µM (inactive).
In the case of `O=C(c1cc2c(=O)n3ccccc3nc2s1)N1CCN(c2cccc(Cl)c2)CC1`, the IC50 is reported as > 50 µM (inactive).
`CC(CC(F)(F)F)N1CCC(n2nccc2NC(=O)CCOc2ccccc2)CC1` (stereo not given) was tested, and the IC50 was > 50 µM (inactive).
`Cc1cc(NCCN(C)C)n2nc(-c3cccs3)cc2n1` was tested, and the IC50 was 28.8 µM.
`COc1cc(C2C3CN(C)CC=C3C(C#N)=C(N)C2(C#N)C#N)ccc1OC(C)C` (stereo not given) gave an IC50 of 12.1 µM.
With `COc1ccc(OC)c(N(CC(=O)O)S(=O)(=O)c2ccc(OC)c(OC)c2)c1` the IC50 was > 50 µM (inactive).
In the case of `OCCN1CCN(c2nc(-c3ccccc3)c3cc(Cl)ccc3n2)CC1`, the IC50 is reported as 22.2 µM.
In the case of `CCOc1ccc(N=Cc2c(O)n(-c3cccc(C)n3)c(=O)c3ccccc23)cc1`, the IC50 is reported as > 26 µM (inactive).
`Cc1cc(/C=C2\C(=O)NC(=O)N(c3ccc(F)cc3)C2=O)c(C)n1-c1ccc(C(=O)O)cc1` was tested, and the IC50 was > 50 µM (inactive).
For `COCCCn1c(N)c(C(=O)Nc2ccccc2)c2nc3ccccc3nc21`, the IC50 was 40.8 µM.
`CC(C)CN(Cc1c(O)ccc2ccccc12)CC(C)C` was tested, and the IC50 was > 50 µM (inactive).
Work on `Cc1cc2c(c(=O)n1CC1CCCO1)C(c1ccco1)C(C#N)=C(N)O2` (stereo not given) yielded an IC50 of 20.9 µM.
`CC(C)Sc1nc(N2CCOCC2)c2c(c1C#N)CC(C)(C)N(C)C2` gave an IC50 of 46.2 µM.
In the case of `CCOC(=O)c1ccc(NC(=O)CSc2nnc(C3CCCCC3)n2C)cc1`, the IC50 is reported as > 50 µM (inactive).
With `Cc1cccc(Oc2nc(-c3cccc([N+](=O)[O-])c3)nc3ccccc23)c1C` the IC50 was > 50 µM (inactive).
`CCN(CC)S(=O)(=O)c1ccc(OC)c(NC(=O)C2CC(=O)N(c3ccc(C)cc3)C2)c1` (stereo not given) was tested, and the IC50 was > 50 µM (inactive).
